Laboratory results published in US20050260183A1, “Treatment of surfaces populated by bacteria with a lucilia sericata extract” (priority 2002, published 2005).
Like-named read-outs stand apart in the source and are kept apart here. Ends that are not written are not given here.

Key:
OdDHL = type: biochemical, Pseudomonas aeruginosa
BHL = type: biochemical, Pseudomonas aeruginosa
E. coli D31 = type: cell-based

O=S(=O)(F)Cc1ccccc1 [PMSF, phenylmethanesulphonyl fluoride]
effect of inhibitor on OdDHL degradation by ES (OdDHL): inhibited
effect of pre-incubation of ES with inhibitor on BHL degradation (BHL): degradation was prevented

Cecropin B (KWKVFKKIEKMGRNIRNGIVKAGPAIAVLGEAKAL; ends and bridges not checked; UniProt P01508 27-61, looked up) [Cecropin B (Sigma), anti-microbial standard]
antimicrobial plaque diameter (E. coli D31; 2 μl Cecropin B at 10 μg/ml): 4.25 mm
antimicrobial plaque diameter (E. coli D31; 2 μl Cecropin B at 100 μg/ml): 8 mm
